Measurements: PubChem BioAssay (NCI)
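GI50: concentration for 50% inhibition of growth. TGI marks complete inhibition of growth.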

Key:
Experiment in all cases: DTP human tumour cell line panel, 384-well format
K-562 leukemia = test system: K-562 leukemia
SK-MEL-28 melanoma = test system: SK-MEL-28 melanoma
MDA-MB-435 melanoma = test system: MDA-MB-435 melanoma
NCI-H23 lung = test system: NCI-H23 lung
OVCAR-4 ovarian = test system: OVCAR-4 ovarian
IGROV1 ovarian = test system: IGROV1 ovarian
T-47D breast = test system: T-47D breast
SNB-19 CNS = test system: SNB-19 CNS
MDA-MB-231 breast = test system: MDA-MB-231 breast
NCI-H522 lung = test system: NCI-H522 lung
ACHN renal = test system: ACHN renal
MDA-MB-468 breast = test system: MDA-MB-468 breast
OVCAR-3 ovarian = test system: OVCAR-3 ovarian
BT-549 breast = test system: BT-549 breast
CAKI-1 renal = test system: CAKI-1 renal
CCRF-CEM leukemia = test system: CCRF-CEM leukemia
DU-145 prostate = test system: DU-145 prostate
A549 NSCLC = test system: A549 NSCLC
SF-268 CNS = test system: SF-268 CNS
UACC-62 melanoma = test system: UACC-62 melanoma
LOX IMVI melanoma = test system: LOX IMVI melanoma
PC-3 prostate = test system: PC-3 prostate
TK-10 renal = test system: TK-10 renal
SR leukemia = test system: SR leukemia
HT29 colon = test system: HT29 colon
HOP-92 NSCLC = test system: HOP-92 NSCLC
HCT-116 colon = test system: HCT-116 colon
MALME-3M melanoma = test system: MALME-3M melanoma
HL-60(TB) leukemia = test system: HL-60(TB) leukemia
SK-MEL-2 melanoma = test system: SK-MEL-2 melanoma
U251 glioblastoma = test system: U251 glioblastoma
NCI-H226 lung = test system: NCI-H226 lung
M14 melanoma = test system: M14 melanoma
OVCAR-5 ovarian = test system: OVCAR-5 ovarian
RPMI-8226 leukemia = test system: RPMI-8226 leukemia
SF-295 CNS = test system: SF-295 CNS
UO-31 renal = test system: UO-31 renal
SF-539 CNS = test system: SF-539 CNS
SK-OV-3 ovarian = test system: SK-OV-3 ovarian
SK-MEL-5 melanoma = test system: SK-MEL-5 melanoma
MCF7 breast = test system: MCF7 breast
KM12 colon = test system: KM12 colon
HOP-62 NSCLC = test system: HOP-62 NSCLC
RXF 393 renal = test system: RXF 393 renal
COLO 205 colon = test system: COLO 205 colon
HCT-15 colon = test system: HCT-15 colon
MOLT-4 leukemia = test system: MOLT-4 leukemia
NCI-H460 NSCLC = test system: NCI-H460 NSCLC
SN12C renal = test system: SN12C renal
NCI/ADR-RES ovarian = test system: NCI/ADR-RES ovarian
SW-620 colon = test system: SW-620 colon
786-0 renal = test system: 786-0 renal
UACC-257 melanoma = test system: UACC-257 melanoma
OVCAR-8 ovarian = test system: OVCAR-8 ovarian
HCC-2998 colon = test system: HCC-2998 colon
NCI-H322M lung = test system: NCI-H322M lung
A498 renal = test system: A498 renal

## COc1cc(F)cc([C@@H](CO)NC(=O)[C@@H](C)N2Cc3ccc(-c4nc(NC5CCOCC5)ncc4Cl)cc3C2=O)c1
K-562 leukemia
  GI50: 0.409 µM
  TGI: 19 µM
SK-MEL-28 melanoma
  GI50: < 0.01 µM
  TGI: < 0.01 µM
MDA-MB-435 melanoma
  GI50: 0.0103 µM
  TGI: 20.1 µM
NCI-H23 lung
  GI50: < 0.01 µM
  TGI: 0.0221 µM
OVCAR-4 ovarian
  GI50: 13.2 µM
  TGI: 39.3 µM
IGROV1 ovarian
  GI50: 0.145 µM
  TGI: 12.6 µM
T-47D breast
  GI50: 11.7 µM
  TGI: 24.1 µM
SNB-19 CNS
  GI50: 11 µM
  TGI: > 100 µM
MDA-MB-231 breast
  GI50: 0.0854 µM
  TGI: 19.1 µM
NCI-H522 lung
  GI50: 11.3 µM
  TGI: 27.4 µM
ACHN renal
  GI50: 5.8 µM
  TGI: 60.8 µM
MDA-MB-468 breast
  GI50: 0.325 µM
  TGI: 10 µM
OVCAR-3 ovarian
  GI50: 13.9 µM
  TGI: 33.3 µM
BT-549 breast
  GI50: 11.4 µM
  TGI: 23.8 µM
CAKI-1 renal
  GI50: 0.096 µM
  TGI: 33.3 µM
CCRF-CEM leukemia
  GI50: 11.7 µM
  TGI: 24.7 µM
DU-145 prostate
  GI50: 11.3 µM
  TGI: 38.7 µM
A549 NSCLC
  GI50: 0.0457 µM
  TGI: 17.3 µM
SF-268 CNS
  GI50: 25.5 µM
  TGI: 79.5 µM
UACC-62 melanoma
  GI50: < 0.01 µM
  TGI: 0.0427 µM
LOX IMVI melanoma
  GI50: 0.0134 µM
  TGI: 0.0671 µM
PC-3 prostate
  GI50: 18.3 µM
  TGI: 36.2 µM
TK-10 renal
  GI50: 0.821 µM
  TGI: 40.3 µM
SR leukemia
  GI50: 0.499 µM
  TGI: 14.7 µM
HT29 colon
  GI50: < 0.01 µM
  TGI: 13.4 µM
HOP-92 NSCLC
  GI50: 0.0249 µM
  TGI: 0.162 µM
HCT-116 colon
  GI50: 0.0137 µM
  TGI: 0.201 µM
MALME-3M melanoma
  GI50: < 0.01 µM
  TGI: < 0.01 µM
HL-60(TB) leukemia
  GI50: < 0.01 µM
  TGI: 0.0429 µM
SK-MEL-2 melanoma
  GI50: < 0.01 µM
  TGI: 0.0312 µM
U251 glioblastoma
  GI50: 0.46 µM
  TGI: 42.7 µM
NCI-H226 lung
  GI50: 0.214 µM
  TGI: 16.1 µM
M14 melanoma
  GI50: < 0.01 µM
  TGI: 0.0138 µM
OVCAR-5 ovarian
  GI50: 0.0102 µM
  TGI: > 100 µM
RPMI-8226 leukemia
  GI50: 0.224 µM
  TGI: 5.09 µM
SF-295 CNS
  GI50: 15.2 µM
  TGI: 43 µM
UO-31 renal
  GI50: 0.578 µM
  TGI: 20.1 µM
SF-539 CNS
  GI50: 0.382 µM
  TGI: 15.6 µM
SK-OV-3 ovarian
  GI50: 6.75 µM
  TGI: 63.2 µM
SK-MEL-5 melanoma
  GI50: 0.0181 µM
  TGI: 12.1 µM
MCF7 breast
  GI50: 16.5 µM
  TGI: 31.9 µM
KM12 colon
  GI50: 0.0465 µM
  TGI: 16.4 µM
HOP-62 NSCLC
  GI50: 0.218 µM
  TGI: 25.9 µM
RXF 393 renal
  GI50: 0.441 µM
  TGI: 16.9 µM
COLO 205 colon
  GI50: < 0.01 µM
  TGI: 0.0246 µM
HCT-15 colon
  GI50: 14.4 µM
  TGI: 75.6 µM
MOLT-4 leukemia
  GI50: 7.8 µM
  TGI: 20.2 µM
NCI-H460 NSCLC
  GI50: 1.12 µM
  TGI: 31.3 µM
SN12C renal
  GI50: 16.6 µM
  TGI: 85.4 µM
NCI/ADR-RES ovarian
  GI50: 14.7 µM
  TGI: 31.9 µM
SW-620 colon
  GI50: 0.0132 µM
  TGI: 19.3 µM
786-0 renal
  GI50: 11.3 µM
  TGI: 34.1 µM
UACC-257 melanoma
  GI50: < 0.01 µM
  TGI: 0.0209 µM
OVCAR-8 ovarian
  GI50: 12.4 µM
  TGI: 28.2 µM
HCC-2998 colon
  GI50: < 0.01 µM
  TGI: 0.0408 µM
NCI-H322M lung
  GI50: 0.0722 µM
  TGI: 25.8 µM
A498 renal
  GI50: 10.4 µM
  TGI: 36.1 µM
